Paper PMC11637378, “Optogenetic screening of MCT1 activity implicates a cluster of non-steroidal anti-inflammatory drugs (NSAIDs) as inhibitors of lactate transport” (PLOS ONE, 2024)
“And” between values parts separate entries of the source, which are not always exact repeats. Identical values can stand only once. Like-named read-outs stand apart in the source and are kept apart here.

How the values were obtained:
MCT1 (F360C) = MCT1 (F360C) (UniProt P36035+P53987, F360C); assay: Growth with lactate as sole carbon source, by4741 Δjen1 expressing MCT1(F360C); settings: for growth curve reading, single replicate / growth curve reading, mean of 4 replicates: Δjen1 MCT1(F360C)
Sequence of MCT1 (F360C) (P36035+P53987 fused P53987:F360C): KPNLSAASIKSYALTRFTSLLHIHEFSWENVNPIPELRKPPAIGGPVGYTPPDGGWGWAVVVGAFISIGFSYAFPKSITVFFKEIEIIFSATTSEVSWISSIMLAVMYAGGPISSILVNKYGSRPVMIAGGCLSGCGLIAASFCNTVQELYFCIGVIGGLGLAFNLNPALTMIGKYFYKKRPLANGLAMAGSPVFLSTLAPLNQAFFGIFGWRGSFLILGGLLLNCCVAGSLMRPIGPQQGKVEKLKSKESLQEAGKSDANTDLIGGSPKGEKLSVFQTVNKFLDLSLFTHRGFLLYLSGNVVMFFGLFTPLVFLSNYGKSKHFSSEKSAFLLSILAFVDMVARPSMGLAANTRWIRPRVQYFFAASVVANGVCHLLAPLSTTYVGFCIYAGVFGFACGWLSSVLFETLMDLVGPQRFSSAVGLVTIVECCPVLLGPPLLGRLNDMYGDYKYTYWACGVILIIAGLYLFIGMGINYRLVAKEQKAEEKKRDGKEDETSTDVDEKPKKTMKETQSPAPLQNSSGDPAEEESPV
Procedure: (§1) Yeast was propagated, transformed, and assayed in synthetic complete media. Synthetic media was composed of 1.5 g Difco yeast nitrogen base without amino acids and ammonium sulfate, 5 g ammonium sulfate, 200 μM inositol, and 2 g amino acid powder mix per liter. For all studies using MCT1, uracil was excluded to maintain plasmid selection. The carbon source for most experiments was 2% glucose; however, for growth in alternative carbon sources lactate (0.5% v/v) or pyruvate (40 mM) was used instead with media pH adjustment to 5.0.
(§2) For growth in lactate or pyruvate as a sole carbon source by4741 and an equivalent strain with a JEN1 knockout was obtained from the nonessential gene deletion library [62].
(§3) Supplementary file pone.0312492.s005.tif: S5 Fig Growth of the optimal MCT1 fusion in lactate and sensitivity to AZD3965 administration. […] AZD3965 was added to the media at a concentration of 10 μM.

Δjen1 EV = assay: Growth with lactate as sole carbon source, Δjen1 carrying empty vector (EV) control; format: cell-based, Saccharomyces cerevisiae
MCT1 (wildtype) = MCT1 (wildtype) (UniProt P36035+P53987); assay: Growth with lactate as sole carbon source, by4741 Δjen1 expressing wild-type MCT1
Sequence of MCT1 (wildtype) (P36035+P53987 fused): as the sequence (P36035+P53987 fused P53987:F360C) above, with C398F counted along it
Procedure: as §1, §2, §3

SAWy710 (EV) = assay: High throughput assay validation, empty vector (EV) control strain SAWy710, AZD versus DMSO; format: cell-based, Saccharomyces cerevisiae; settings: individual wells 1-16, listed as AZD
MCT1 = settings: cited from earlier work
[1] = patients with advanced cancer; dose-limiting toxicity relating to retinopathy at higher concentrations; cited from earlier work
[2] = target: neurokinin 1 (NK1) receptor; settings: library annotation; cited from earlier work
parent strain (SAWy518) [3] = system: parent strain (SAWy518)
[4] = target: neurokinin 1 (NK1) receptor; set-up: method as in not given; settings: library annotation; ref not given; cited from earlier work
[5] = target: neurokinin 1 (NK1) receptor; settings: library annotation; cited from earlier work; remark: listed apart in the source
parent strain (SAWy518) [6] = assay: microbe, parasite or virus in culture; set-up: species or system Saccharomyces cerevisiae SAWy518; Off-target growth counter-screen, OD600 as per cent of untreated wells, strain lacking MCT1; settings: 18.5 h; sheet Primary Screen - final;; off-target growth of parent strain, about 18 h
MCT4 [7] = settings: HAP1 cells; NOTES column annotation; cited from earlier work
tumor growth = settings: cited from earlier work
cancer cell growth = settings: 10 μM, administered alone; cited from earlier work
MCT4 [8] = settings: HAP1 cells, library annotation; cited from earlier work
survivin [9] = settings: NOTES column annotation; cited from earlier work
survivin [10] = settings: library annotation; cited from earlier work
survivin [11] = settings: library annotation; cited from earlier work; remark: listed apart in the source

## Cc1[nH]nc(C(F)(F)F)c1Cc1sc2c(c1C(=O)N1C[C@](C)(O)CO1)c(=O)n(C)c(=O)n2C(C)C [AZD3965]
MCT1 (F360C); MCT1 F360C, AZD3965 10 μM, 0.5% lactate (S5 Fig)
  growth in media with lactate as the sole carbon source: inhibited growth
MCT1 (F360C); T0, time 0
  growth curve reading, single replicate: 0.0403
MCT1 (F360C); T1, time 19
  growth curve reading, single replicate: 0.1093 and 0.1204 and 0.1196 and 0.1290
MCT1 (F360C); T2, time 21
  growth curve reading, single replicate: 0.1288 and 0.1364 and 0.1335
MCT1 (F360C); T3, time 25
  growth curve reading, single replicate: 0.1550 and 0.1804 and 0.1853 and 0.2001
MCT1 (F360C); T4, time 27.5
  growth curve reading, single replicate: 0.1660 and 0.1913 and 0.2008 and 0.2152
MCT1 (F360C); T5, time 43
  growth curve reading, single replicate: 0.1991 and 0.2285 and 0.2378 and 0.2578
MCT1 (F360C); T6, time 45.5
  growth curve reading, single replicate: 0.2030 and 0.2318 and 0.2431 and 0.2629
MCT1 (F360C); T7, time 48
  growth curve reading, single replicate: 0.2036 and 0.2334 and 0.2458 and 0.2644
MCT1 (F360C); time 0
  growth curve reading, mean of 4 replicates: 0.0403
MCT1 (F360C); time 19
  growth curve reading, mean of 4 replicates: 0.1196
MCT1 (F360C); time 21
  growth curve reading, mean of 4 replicates: 0.1338
MCT1 (F360C); time 25
  growth curve reading, mean of 4 replicates: 0.1802
MCT1 (F360C); time 27.5
  growth curve reading, mean of 4 replicates: 0.1933
MCT1 (F360C); time 43
  growth curve reading, mean of 4 replicates: 0.2308
MCT1 (F360C); time 45.5
  growth curve reading, mean of 4 replicates: 0.2352
MCT1 (F360C); time 48
  growth curve reading, mean of 4 replicates: 0.2368
Δjen1 EV; T1, time 19
  growth curve reading, single replicate: 0.1091 and 0.1160 and 0.1215 and 0.1310
Δjen1 EV; T2, time 21
  growth curve reading, single replicate: 0.1392 and 0.1432 and 0.1501
Δjen1 EV; T3, time 25
  growth curve reading, single replicate: 0.1257 and 0.1403 and 0.1504
Δjen1 EV; T4, time 27.5
  growth curve reading, single replicate: 0.1322 and 0.1452 and 0.1564 and 0.1709
Δjen1 EV; T5, time 43
  growth curve reading, single replicate: 0.1444 and 0.1533 and 0.1681 and 0.1884
Δjen1 EV; T6, time 45.5
  growth curve reading, single replicate: 0.1453 and 0.1535 and 0.1657 and 0.1862
Δjen1 EV; T7, time 48
  growth curve reading, single replicate: 0.1464 and 0.1540 and 0.1668 and 0.1877
Δjen1 EV; time 19
  growth curve reading, mean of 4 replicates: 0.1194
Δjen1 EV; time 21
  growth curve reading, mean of 4 replicates: 0.1435
Δjen1 EV; time 25
  growth curve reading, mean of 4 replicates: 0.1449
Δjen1 EV; time 27.5
  growth curve reading, mean of 4 replicates: 0.1512
Δjen1 EV; time 43
  growth curve reading, mean of 4 replicates: 0.1636
Δjen1 EV; time 45.5
  growth curve reading, mean of 4 replicates: 0.1627
Δjen1 EV; time 48
  growth curve reading, mean of 4 replicates: 0.1637
MCT1 (wildtype); wildtype MCT1, AZD3965 10 μM, 0.5% lactate (S5 Fig)
  growth in media with lactate as the sole carbon source: inhibited growth
MCT1 (wildtype); Δjen1 MCT1, T0, time 0
  growth curve reading, single replicate: 0.0402
MCT1 (wildtype); Δjen1 MCT1, T1, time 19
  growth curve reading, single replicate: 0.1316 and 0.1252 and 0.1281 and 0.1266
MCT1 (wildtype); Δjen1 MCT1, T2, time 21
  growth curve reading, single replicate: 0.1442 and 0.1394 and 0.1417 and 0.1396
MCT1 (wildtype); Δjen1 MCT1, T3, time 25
  growth curve reading, single replicate: 0.1656 and 0.1622 and 0.1633 and 0.1608
MCT1 (wildtype); Δjen1 MCT1, T4, time 27.5
  growth curve reading, single replicate: 0.1778 and 0.1729 and 0.1762
MCT1 (wildtype); Δjen1 MCT1, T5, time 43
  growth curve reading, single replicate: 0.2083 and 0.2030 and 0.2026 and 0.2041
MCT1 (wildtype); Δjen1 MCT1, T6, time 45.5
  growth curve reading, single replicate: 0.2171 and 0.2098 and 0.2095 and 0.2126
MCT1 (wildtype); Δjen1 MCT1, T7, time 48
  growth curve reading, single replicate: 0.2154 and 0.2089 and 0.2128 and 0.2107
MCT1 (wildtype); Δjen1 MCT1, time 0
  growth curve reading, mean of 4 replicates: 0.0402
MCT1 (wildtype); Δjen1 MCT1, time 19
  growth curve reading, mean of 4 replicates: 0.1279
MCT1 (wildtype); Δjen1 MCT1, time 21
  growth curve reading, mean of 4 replicates: 0.1412
MCT1 (wildtype); Δjen1 MCT1, time 25
  growth curve reading, mean of 4 replicates: 0.1630
MCT1 (wildtype); Δjen1 MCT1, time 27.5
  growth curve reading, mean of 4 replicates: 0.1750
MCT1 (wildtype); Δjen1 MCT1, time 43
  growth curve reading, mean of 4 replicates: 0.2045
MCT1 (wildtype); Δjen1 MCT1, time 45.5
  growth curve reading, mean of 4 replicates: 0.2122
MCT1 (wildtype); Δjen1 MCT1, time 48
  growth curve reading, mean of 4 replicates: 0.2120
SAWy710 (EV); Condition non, Replicate1, EV strain SAWy710, 10 µM AZD
  OD600: 0.1411 and 0.1378 and 0.134 and 0.1369 and 0.1383 and 0.1317 and 0.135 and 0.1363 and 0.1403 and 0.1392 and 0.1365 and 0.1389 and 0.1394 and 0.149
SAWy710 (EV); Condition non, Replicate2, EV strain SAWy710, 10 µM AZD
  OD600: 0.1384 and 0.1406 and 0.1366 and 0.135 and 0.1021 and 0.1315 and 0.1407 and 0.1329 and 0.1336 and 0.1393 and 0.1343 and 0.134 and 0.138 and 0.1378 and 0.1431
SAWy710 (EV); Condition perm, Replicate1, EV strain SAWy710, 10 µM AZD
  OD600: 0.7718 and 0.7777 and 0.7776 and 0.7734 and 0.7269 and 0.7398 and 0.7671 and 0.7655 and 0.7645 and 0.774 and 0.768 and 0.7629 and 0.759 and 0.7698 and 0.7556 and 0.7591
SAWy710 (EV); Condition perm, Replicate2, EV strain SAWy710, 10 µM AZD
  OD600: 0.1774 and 0.1728 and 0.1654 and 0.1606 and 0.1374 and 0.1596 and 0.1712 and 0.1673 and 0.1713 and 0.168 and 0.1743 and 0.17 and 0.1727 and 0.1704 and 0.1842
MCT1; read-out: previously reported IC50 value
  IC50: 5.12 nM
[1]
  tolerability in phase-1 clinical trial: relatively well tolerated

## Cc1ccccc1-c1cc(N2CCN(C)CC2)ncc1N(C)C(=O)C(C)(C)c1cc(C(F)(F)F)cc(C(F)(F)F)c1 [Netupitant]
[2]
  Ki: 0.95 nM
Parent strain (SAWy518) [3]
  OffScreen_percentage: 103.271 percentage
  Offscreen_18hr: 0.8334
  Offscreen_24hr: 0.9137
  Offscreen_42hr: 0.9839
  Read_percentage: 103.271 percentage
[4]
  Ki: 0.95 nM
[5]
  Ki: 0.95 nM
Parent strain (SAWy518) [6]
  viability at 10 µM: 103%

## CCOC(=O)Oc1c(OC)cc(C(=O)O[C@@H]2C[C@@H]3CN4CCc5c([nH]c6cc(OC)ccc56)[C@H]4C[C@@H]3[C@H](C(=O)OC)[C@H]2OC)cc1OC [Syrosingopine]
Parent strain (SAWy518) [3]
  OffScreen_percentage: 92.2553 percentage
  Offscreen_18hr: 0.7445
  Offscreen_24hr: 0.7958
  Offscreen_42hr: 0.9268
  Read_percentage: 92.2553
MCT4 [7]
  IC50: 40 nM
Tumor growth; alone versus paired with metformin
  tumor growth in in vivo cancer models: only effective in reducing tumor growth when paired with the mitochondrial oxidative phosphorylation inhibitor metformin
Tumor growth; mice
  dose required to inhibit tumor growth in mice: 7.5 mg/kg
Cancer cell growth
  in vitro cancer cell growth: inhibit in vitro cancer cell growth
MCT4 [8]
  IC50: 40 nM
MCT1; HAP1 cells, library annotation, read-out: IC50 MCT1
  IC50: 2500 nM
Parent strain (SAWy518) [6]
  viability at 10 µM: 92.3%

## YM155
Parent strain (SAWy518) [3]
  OffScreen_percentage: 103.73 percentage
  Offscreen_18hr: 0.8371
  Offscreen_24hr: 0.9154
  Offscreen_42hr: 0.9694
  Read_percentage: 103.73
Survivin [9]
  IC50: 0.54 nM
Survivin [10]
  IC50: 0.54 nM
Survivin [11]
  IC50: 0.54 nM
